The record followed here is patent publication US7179825B2, “Retinoic acid mimetic anilides” (Janssen Pharmaceutica N.V., priority 1997, dated 2007).

pIC50: −log10 of the molar value.

Assay [1] deals with metabolism of retinoic acid in human breast cancer cells. Briefly: Inhibition of retinoic acid (RA) metabolism (Example C.1). The note with it: MCF-7 human breast cancer cells, 3H-RA as substrate, concentration needed to reduce the amount of metabolites to 50% of the control. The format is cell-based. The method, boiled down:
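MCF-7 cells, pre-stimulated with RA the day before, incubated with ³H-RA substrate and test compound in 1% DMSO. Polar ³H-metabolites separated from unmetabolized RA and counted by scintillation. IC50 is the concentration cutting metabolite formation to 50% of control, with blank run alongside.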

Assay [2] relates to Ovariectomized rats. Briefly: Vaginal keratinization test on ovariectomized rats (Example C.2). The note with it: estradiol undecylate induced keratinization, per os once daily on days 1-3, active dose = 50% of rats show complete suppression. The format is in vivo. Summed up: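 Ovariectomized rats given s.c. estradiol undecylate (100 μg per 100 g body weight in sesame oil), then oral compound once daily on days 1-3 (vehicle PEG 200). Vaginas assessed histologically one day after last dose; lowest active dose (mg/kg) is the dose giving complete keratinization suppression in 50% of rats.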

By pIC50 is commonly meant the IC50 on a negative log10 scale, so that one unit is a factor of ten. With `CCOc1ccc(CC(=O)Nc2ccc(C(C(C)N(C)C)n3ccnc3)cc2)cc1OCC` (single isomer, unassigned) [Compound 301], in assay [1], the pIC50 is 8.22. Besides, the “LAD (lowest active dose)” value in assay [2] is on record as greater than 2.50 mg/kg.

Turning to `CC(C)C(c1ccc(NC(=O)c2cccn2C)cc1)n1ccnc1` (stereo not shown) [Compound 195], the negative logarithm of the IC50 (pIC50) in assay [1] is 7.45. For the same molecule, the “LAD (lowest active dose)” value in assay [2] was greater than 10.00 mg/kg.

Turning to `CC(=Cc1ccccc1)C(=O)Nc1ccc(C(C)(C)n2ccnc2)cc1` [Compound 753], the negative logarithm of the IC50 (pIC50) in assay [1] was less than 7.00. In addition, in assay [2], the “LAD (lowest active dose)” value is greater than 10.00 mg/kg.

`CC(C)C(c1ccc(NC(=O)C2CCCC2)cc1)n1ccnc1` (racemic) [Compound 192]: the negative logarithm of the IC50 (pIC50) in assay [1] is 8.48. For the same molecule, the “LAD (lowest active dose)” value in assay [2] is on record as greater than 10.00 mg/kg.

`CCC(CC)C(c1ccc(NC(=O)Cc2ccc(O)cc2C)cc1)n1ccnc1` (stereo not shown) [Compound 129]: in assay [1], the pIC50 is 10.63. In assay [2], the “LAD (lowest active dose)” value stood at 2.50 mg/kg.

For the molecule `CC(C)C(c1ccc(NC(=O)c2ccsc2)cc1)n1ccnc1` (racemic) [Compound 173], in assay [1], the negative-log IC50 (pIC50) was 8.29. Also, the “LAD (lowest active dose)” value in assay [2] is on record as 10.00 mg/kg.

As for `COc1ccc(CC(=O)Nc2ccc(C(C(C)N(C)C)n3cncn3)cc2)cc1Cl` (single isomer, unassigned) [Compound 288], the negative-log IC50 (pIC50) in assay [1] was 8.89. Also, in assay [2], the “LAD (lowest active dose)” value was greater than 2.50 mg/kg.

For `CCOc1ccc(CC(=O)Nc2ccc(C(C(CC)CC)n3ccnc3)cc2)cc1Cl` (racemic) [Compound 118], the pIC50 in assay [1] is 8.65. Also, the “LAD (lowest active dose)” value in assay [2] was found to be 2.50 mg/kg.

With `CC(C)C(c1ccc(NC(=O)CSc2ccncc2)cc1)n1ccnc1` (racemic) [Compound 239], the negative-log IC50 (pIC50) in assay [1] was 9.14. Moreover, the “LAD (lowest active dose)” value in assay [2] was 10.00 mg/kg.

`CC(C)C(c1ccc(NC(=O)Cc2ccc(Cl)cc2Cl)cc1)n1ccnc1` (stereo not shown) [Compound 141]: in assay [1], the pIC50 was 8.88. For the same molecule, the “LAD (lowest active dose)” value in assay [2] is recorded as greater than 10.00 mg/kg.

In the case of `CCCC(CCC)C(c1ccc(NC(=O)Cc2ccc(OC)c(OC)c2)cc1)n1cncn1` (racemic) [Compound 644], the pIC50 in assay [1] is 9.53. In addition, the “LAD (lowest active dose)” value in assay [2] came to 2.50 mg/kg.

Turning to `CCCC(CCC)C(c1ccc(NC(=O)/C(C)=C/c2ccccc2)cc1)n1ccnc1` (stereo not shown) [Compound 486], the pIC50 in assay [1] is 7.56. For the same molecule, the “LAD (lowest active dose)” value in assay [2] is recorded as 5.00 mg/kg.

For `CC(C)C(c1ccc(NC(=O)CSc2ncccn2)cc1)n1ccnc1` (stereo not shown) [Compound 224], the pIC50 in assay [1] was 8.33. In addition, the “LAD (lowest active dose)” value in assay [2] is greater than 10.00 mg/kg.

Take `CCC(CC)C(c1ccc(NC(=O)Cc2ccc(C)c(OC)c2)cc1)n1cncn1` (single isomer, unassigned) [Compound 783]: the pIC50 in assay [1] was 7.40. Also, in assay [2], the “LAD (lowest active dose)” value turned out to be 5.00 mg/kg.

On to `CC(=O)Nc1ccc(C(c2cccc(C(F)(F)F)c2)n2cncn2)cc1` (stereo not shown) [Compound 613], for which the negative logarithm of the IC50 (pIC50) in assay [1] is 5.74. Besides, in assay [2], the “LAD (lowest active dose)” value is reported as greater than 20.00 mg/kg.

As to `CC(=O)Nc1ccc(/C=C(\C)C(=O)Nc2ccc(C(C(C)C)n3ccnc3)cc2)cc1` (stereo not shown) [Compound 612], in assay [1], the pIC50 was 7.77. Also, the “LAD (lowest active dose)” value in assay [2] was 10.00 mg/kg.

As for `CC(C)C(c1ccc(NC(=O)C(c2ccccc2)C2CCCCC2)cc1)n1ccnc1` (mixture of isomers) [Compound 661], the pIC50 in assay [1] is 7.47. Moreover, the “LAD (lowest active dose)” value in assay [2] is greater than 10.00 mg/kg.

For the molecule `CCC(CC)C(c1ccc(NC(=O)Cc2ccc3c(c2)OCCO3)cc1)n1cncn1` (racemic) [Compound 7], the negative logarithm of the IC50 (pIC50) in assay [1] was 9.10. Also, the “LAD (lowest active dose)” value in assay [2] is recorded as greater than 2.50 mg/kg.

As for `CCOC(=O)CCCC(=O)Nc1ccc(C(C(C)C)n2ccnc2)cc1` (racemic) [Compound 219, (±)-ethyl 5-[[4-[1-(1H-imidazol-1-yl)-2-methylpropyl]phenyl]amino]-5-oxopentanoate], the negative logarithm of the IC50 (pIC50) in assay [1] (MCF7) was 8.49. Further, in assay [2] (Rattus norvegicus, po, read-out: LAD (lowest active dose)), the minimal effective dose worked out at 20 mg/kg.

On to `CC(C)C(c1ccc(NC(=O)C(C)(C)O)cc1)n1ccnc1` (racemic) [Compound 236], for which the negative-log IC50 (pIC50) in assay [1] was 7.01. In addition, the “LAD (lowest active dose)” value in assay [2] came to 5.00 mg/kg.

For `CC(Sc1ccccc1)C(c1ccc(NC(=O)Cc2ccc(Cl)cc2)cc1)n1ccnc1` (single isomer, unassigned) [Compound 376], the negative logarithm of the IC50 (pIC50) in assay [1] is greater than 10.00. Moreover, the “LAD (lowest active dose)” value in assay [2] is 2.50 mg/kg.

Take `C/C(=C\c1ccc(C(F)(F)F)cc1F)C(=O)Nc1ccc(C(C(C)C)n2ccnc2)cc1` (racemic) [Compound 609]: the pIC50 in assay [1] was 7.96. For the same molecule, the “LAD (lowest active dose)” value in assay [2] is 10.00 mg/kg.

With `CCC(c1ccc(NC(=O)/C(C)=C/c2ccccc2)cc1)n1ccnc1` (racemic) [Compound 460], the negative-log IC50 (pIC50) in assay [1] was 7.44. Also, the “LAD (lowest active dose)” value in assay [2] is given as greater than 20.00 mg/kg.

As to `CCC(CC)C(c1ccc(NC(=O)Cc2cccc(OC)c2)cc1)n1ccnc1` (racemic) [Compound 90], the negative-log IC50 (pIC50) in assay [1] is 8.63. The “LAD (lowest active dose)” value in assay [2] came to 2.50 mg/kg.

For `CCOc1ccc(CC(=O)Nc2ccc(C(C(CC)CC)n3ccnc3)cc2)cc1C` (racemic) [Compound 125], the negative logarithm of the IC50 (pIC50) in assay [1] is 9.71. Also, the “LAD (lowest active dose)” value in assay [2] is reported as 2.50 mg/kg.

For `CC(C)C(c1ccc(NC(=O)c2cnccn2)cc1)n1ccnc1` (racemic) [Compound 170], the negative logarithm of the IC50 (pIC50) in assay [1] is 7.91. The “LAD (lowest active dose)” value in assay [2] is given as 10.00 mg/kg.

On to `C/C(=C\c1ccccc1)C(=O)Nc1ccc(C(C(C)N(C)C)n2cncn2)cc1` (single isomer, unassigned) [Compound 332], for which the pIC50 in assay [1] was 8.82. Also, the “LAD (lowest active dose)” value in assay [2] is recorded as greater than 2.50 mg/kg.

Consider `CC(C)C(c1ccc(NC(=O)c2ccnc3ccccc23)cc1)n1ccnc1` (racemic) [Compound 227], for which the pIC50 in assay [1] was 8.11. The “LAD (lowest active dose)” value in assay [2] is greater than 10.00 mg/kg.

On to `CC(C)C(c1ccc(NC(=O)Cc2ccccc2)cc1)n1ccnc1` (stereo not shown) [Compound 650], for which the pIC50 in assay [1] is 8.31. Moreover, the “LAD (lowest active dose)” value in assay [2] is 10.00 mg/kg.

Take `CC(C)CCC(c1ccc(NC(=O)Cc2ccc(Cl)cc2)cc1)n1ccnc1` (stereo not shown) [Compound 355]: the negative logarithm of the IC50 (pIC50) in assay [1] is less than 7.00. Also, the “LAD (lowest active dose)” value in assay [2] is recorded as greater than 10.00 mg/kg.

`CC(C(c1ccc(NC(=O)Cc2ccc3c(c2)OCO3)cc1)n1cncn1)N(C)C` (single isomer, unassigned) [Compound 330]: in assay [1], the pIC50 was 8.74. Further, in assay [2], the “LAD (lowest active dose)” value stood at 2.50 mg/kg.

In the case of `CC(C)C(c1ccc(NC(=O)C2CC2c2ccccc2)cc1)n1ccnc1.O=C(O)C(=O)O` (mixture of isomers) [Compound 204], in assay [1], the pIC50 is 8.34. Further, in assay [2], the “LAD (lowest active dose)” value is greater than 10.00 mg/kg.

Consider `CCC(CC)C(c1ccc(NC(=O)C(O)c2ccc(Cl)cc2)cc1)n1cncn1` (racemic) [Compound 18, (±)-(A2)-4-chloro-N-[4-[2-ethyl)-1-(1H-1,2,4-triazol-1-yl)butyl]phenyl]-α-hydroxybenzeneacetamide], for which, in assay [1], the negative-log IC50 (pIC50) was 9.06. The “LAD (lowest active dose)” value in assay [2] was found to be 2.50 mg/kg.

As for `COc1cccc(NC(=O)Nc2ccc(C(C(C)C)n3ccnc3)cc2)c1` (racemic) [Compound 733], the pIC50 in assay [1] was 8.62. Besides, in assay [2], the “LAD (lowest active dose)” value is on record as greater than 10.00 mg/kg.

As for `CCCC(C)C(c1ccc(NC(=O)Cc2ccc(OC)c(OC)c2)cc1)n1cncn1` (racemic) [Compound 639], the negative logarithm of the IC50 (pIC50) in assay [1] was 8.77. The “LAD (lowest active dose)” value in assay [2] was 2.50 mg/kg.
